Converted amounts (≈) assume the structure as drawn. Where two headings read alike, the source gives them in different places.
How the values were obtained:
Assay in all cases: Antimicrobial susceptibility testing (MIC), BD Phoenix Automated Microbiology System; on interpretation of the result: key: R, resistant; I, intermediate; S, susceptible; R*: *As a rule, when ESBL is detected, an interpretation of susceptible or intermediate for penicillins, cephalosporins and aztreonam is reported as resistant
Assay type in all cases: cell-based
Klebsiella ssp. = conditions: for MIC: Klebsiella
Acinetobacter baumannii = conditions: for MIC: Acinetobacter baumannii
Escherichia coli = conditions: for MIC: Escherichia coli
Pseudomonas aeruginosa = conditions: for MIC: Pseudomonas aeruginosa
[1] = read-out: minimal inhibiting concentration, Klebsiella ssp. isolate 1
[2] = read-out: minimal inhibiting concentration, Klebsiella ssp. isolate 2
[3] = read-out: minimal inhibiting concentration, Klebsiella ssp. isolate 3
[4] = read-out: minimal inhibiting concentration, Klebsiella ssp. isolate 4
[5] = read-out: minimal inhibiting concentration, Klebsiella ssp. isolate 5
[6] = Acinetobacter baumannii isolate 1
[7] = Acinetobacter baumannii isolate 2
[8] = Acinetobacter baumannii isolate 3
[9] = Acinetobacter baumannii isolate 4
[10] = Acinetobacter baumannii isolate 5
[11] = read-out: minimal inhibiting concentration, Acinetobacter baumannii isolate 1
[12] = read-out: minimal inhibiting concentration, Acinetobacter baumannii isolate 2
[13] = read-out: minimal inhibiting concentration, Acinetobacter baumannii isolate 3
[14] = read-out: minimal inhibiting concentration, Acinetobacter baumannii isolate 4
[15] = read-out: minimal inhibiting concentration, Acinetobacter baumannii isolate 5
[16] = read-out: minimal inhibiting concentration, Escherichia coli isolate 1
[17] = read-out: minimal inhibiting concentration, Escherichia coli isolate 2
[18] = read-out: minimal inhibiting concentration, Escherichia coli isolate 3
[19] = read-out: minimal inhibiting concentration, Escherichia coli isolate 4
[20] = read-out: minimal inhibiting concentration, Escherichia coli isolate 5
[21] = Pseudomonas aeruginosa isolate 1
[22] = Pseudomonas aeruginosa isolate 2
[23] = Pseudomonas aeruginosa isolate 3
[24] = Pseudomonas aeruginosa isolate 4
[25] = Pseudomonas aeruginosa isolate 5
[26] = read-out: minimal inhibiting concentration, Pseudomonas aeruginosa isolate 1
[27] = read-out: minimal inhibiting concentration, Pseudomonas aeruginosa isolate 2
[28] = read-out: minimal inhibiting concentration, Pseudomonas aeruginosa isolate 3
[29] = read-out: minimal inhibiting concentration, Pseudomonas aeruginosa isolate 4
[30] = read-out: minimal inhibiting concentration, Pseudomonas aeruginosa isolate 5

SMILES	interpretation of the result (Klebsiella ssp.; Klebsiella ssp. isolate 1)	interpretation of the result (Klebsiella ssp.; Klebsiella ssp. isolate 2)	interpretation of the result (Klebsiella ssp.; Klebsiella ssp. isolate 3)	interpretation of the result (Klebsiella ssp.; Klebsiella ssp. isolate 4)	interpretation of the result (Klebsiella ssp.; Klebsiella ssp. isolate 5)	interpretation of the result (Acinetobacter baumannii; [6])	interpretation of the result (Acinetobacter baumannii; [7])	interpretation of the result (Acinetobacter baumannii; [8])	interpretation of the result (Acinetobacter baumannii; [9])	interpretation of the result (Acinetobacter baumannii; [10])	interpretation of the result (Escherichia coli; Escherichia coli isolate 1)	interpretation of the result (Escherichia coli; Escherichia coli isolate 2)	interpretation of the result (Escherichia coli; Escherichia coli isolate 3)	interpretation of the result (Escherichia coli; Escherichia coli isolate 4)	interpretation of the result (Escherichia coli; Escherichia coli isolate 5)	interpretation of the result (Pseudomonas aeruginosa; [21])	interpretation of the result (Pseudomonas aeruginosa; [22])	interpretation of the result (Pseudomonas aeruginosa; [23])	interpretation of the result (Pseudomonas aeruginosa; [24])	interpretation of the result (Pseudomonas aeruginosa; [25])	other results
O=C1CN(/N=C/c2ccc([N+](=O)[O-])o2)C(=O)N1 [Nf., Nitrofurantoin]	R	R	R	R	R	R	R	R	R	R	S	S	S	S	S	R	R	R	R	R	MIC (Klebsiella ssp.; [1]): > 64 µg/mL; MIC (Klebsiella ssp.; [2]): > 64 µg/mL; MIC (Klebsiella ssp.; [3]): > 64 µg/mL; MIC (Klebsiella ssp.; [4]): > 64 µg/mL; MIC (Klebsiella ssp.; [5]): > 64 µg/mL; MIC (Acinetobacter baumannii; [11]): > 64 µg/mL; MIC (Acinetobacter baumannii; [12]): > 64 µg/mL; MIC (Acinetobacter baumannii; [13]): > 64 µg/mL; MIC (Acinetobacter baumannii; [14]): > 64 µg/mL; MIC (Acinetobacter baumannii; [15]): > 64 µg/mL; MIC (Escherichia coli; [16]): 32 µg/mL (≈ 134 µM); MIC (Escherichia coli; [17]): ≤ 16 µg/mL; MIC (Escherichia coli; [18]): ≤ 16 µg/mL; MIC (Escherichia coli; [19]): ≤ 16 µg/mL; MIC (Escherichia coli; [20]): ≤ 16 µg/mL; MIC (Pseudomonas aeruginosa; [26]): > 64 µg/mL; MIC (Pseudomonas aeruginosa; [27]): > 64 µg/mL; MIC (Pseudomonas aeruginosa; [28]): > 64 µg/mL; MIC (Pseudomonas aeruginosa; [29]): > 64 µg/mL; MIC (Pseudomonas aeruginosa; [30]): > 64 µg/mL
CN(C)[C@@H]1C(O)=C(C(N)=O)C(=O)[C@@]2(O)C(O)=C3C(=O)c4c(O)cccc4[C@@](C)(O)[C@H]3C[C@@H]12 [Tet., Tetracycline]	R	R	R	R	R	R	S	R	R	I	R	S	R	R	R	R	R	R	R	R	MIC (Klebsiella ssp.; Klebsiella ssp. isolate 1, read-out: minimal inhibiting concentration): > 8 µg/mL; MIC (Klebsiella ssp.; Klebsiella ssp. isolate 2, read-out: minimal inhibiting concentration): > 8 µg/mL; MIC (Klebsiella ssp.; Klebsiella ssp. isolate 3, read-out: minimal inhibiting concentration): > 8 µg/mL; MIC (Klebsiella ssp.; Klebsiella ssp. isolate 4, read-out: minimal inhibiting concentration): > 8 µg/mL; MIC (Klebsiella ssp.; Klebsiella ssp. isolate 5, read-out: minimal inhibiting concentration): > 8 µg/mL; MIC (Acinetobacter baumannii; Acinetobacter baumannii isolate 1, read-out: minimal inhibiting concentration): > 8 µg/mL; MIC (Acinetobacter baumannii; Acinetobacter baumannii isolate 2, read-out: minimal inhibiting concentration): 4 µg/mL (≈ 9 µM); MIC (Acinetobacter baumannii; Acinetobacter baumannii isolate 3, read-out: minimal inhibiting concentration): > 8 µg/mL; MIC (Acinetobacter baumannii; Acinetobacter baumannii isolate 4, read-out: minimal inhibiting concentration): > 8 µg/mL; MIC (Acinetobacter baumannii; Acinetobacter baumannii isolate 5, read-out: minimal inhibiting concentration): 8 µg/mL (≈ 18 µM); MIC (Escherichia coli; Escherichia coli isolate 1, read-out: minimal inhibiting concentration): > 8 µg/mL; MIC (Escherichia coli; Escherichia coli isolate 2, read-out: minimal inhibiting concentration): ≤ 2 µg/mL; MIC (Escherichia coli; Escherichia coli isolate 3, read-out: minimal inhibiting concentration): > 8 µg/mL; MIC (Escherichia coli; Escherichia coli isolate 4, read-out: minimal inhibiting concentration): > 8 µg/mL; MIC (Escherichia coli; Escherichia coli isolate 5, read-out: minimal inhibiting concentration): > 8 µg/mL; MIC (Pseudomonas aeruginosa; Pseudomonas aeruginosa isolate 1, read-out: minimal inhibiting concentration): > 8 µg/mL; MIC (Pseudomonas aeruginosa; Pseudomonas aeruginosa isolate 2, read-out: minimal inhibiting concentration): > 8 µg/mL; MIC (Pseudomonas aeruginosa; Pseudomonas aeruginosa isolate 3, read-out: minimal inhibiting concentration): > 8 µg/mL; MIC (Pseudomonas aeruginosa; Pseudomonas aeruginosa isolate 4, read-out: minimal inhibiting concentration): > 8 µg/mL; MIC (Pseudomonas aeruginosa; Pseudomonas aeruginosa isolate 5, read-out: minimal inhibiting concentration): > 8 µg/mL
NC[C@H]1O[C@H](O[C@H]2[C@H](O)[C@@H](O[C@H]3O[C@H](CO)[C@@H](O)[C@H](N)[C@H]3O)[C@H](N)C[C@@H]2N)[C@H](N)C[C@@H]1O [Tob., Tobramycin]	I	R	I	I	R	I	R	R	R	S	R	R	R	S	R	S	R	S	R	R	MIC (Klebsiella ssp.; [1]): 8 µg/mL (≈ 17.1 µM); MIC (Klebsiella ssp.; [2]): > 8 µg/mL; MIC (Klebsiella ssp.; [3]): 8 µg/mL (≈ 17.1 µM); MIC (Klebsiella ssp.; [4]): 8 µg/mL (≈ 17.1 µM); MIC (Klebsiella ssp.; [5]): > 8 µg/mL; MIC (Acinetobacter baumannii; [11]): 8 µg/mL (≈ 17.1 µM); MIC (Acinetobacter baumannii; [12]): > 8 µg/mL; MIC (Acinetobacter baumannii; [13]): > 8 µg/mL; MIC (Acinetobacter baumannii; [14]): > 8 µg/mL; MIC (Acinetobacter baumannii; [15]): 4 µg/mL (≈ 8.56 µM); MIC (Escherichia coli; [16]): > 8 µg/mL; MIC (Escherichia coli; [17]): > 8 µg/mL; MIC (Escherichia coli; [18]): > 8 µg/mL; MIC (Escherichia coli; [19]): ≤ 2 µg/mL; MIC (Escherichia coli; [20]): > 8 µg/mL; MIC (Pseudomonas aeruginosa; [26]): ≤ 2 µg/mL; MIC (Pseudomonas aeruginosa; [27]): > 8 µg/mL; MIC (Pseudomonas aeruginosa; [28]): ≤ 2 µg/mL; MIC (Pseudomonas aeruginosa; [29]): > 8 µg/mL; MIC (Pseudomonas aeruginosa; [30]): > 8 µg/mL

Source: patent US9529005B2, “Modulating bacterial MAM polypeptides in pathogenic disease” (priority 2011, dated 2016)
